Series [1] relates to WT virus (NL4-3). Briefly: microbe, parasite or virus in culture. The settings on record: for EC50: read-out: EC50; for cytotoxicity and anti-viral effect (summary graph): Figures 10-12, result in words. The series is classed as cell-based, HIV-1. As to the method: Evaluation of these compounds for the inhibition of HIV-1 was determined as the fifty percent cell culture inhibitory concentration (CIC50) in CEMSS cell culture with WT virus (NL4-3).
(§1) In this Example, the antiviral and cellular toxicity of NNRTIs was investigated, using the cytopathic cell killing assay described by Yang (Yang et al., "Characteristics of a Group of Non-nucleoside Reverse Transcriptase Inhibitors with Structural Diversity and Potent Anti-Human Immunodeficiency Virus Activity," Leukemia 9:S75-S85 [1995]). Briefly, in this method cells (e.g., the CEM-SS cell line, available from the NIAID AIDS Research and Reference Program [ARRRP]) were seeded at a density of 5 x 10^3 cells/well, into the wells of a 96-well microtiter plate. The cells were then infected with HIV virus (either mutant or WT), at a multiplicity of infection (MOI) previously determined to provide complete cell killing by 6 days of culture post-infection (e.g., MOI of 0.01-0.05). Each of the HIV isolates was pre-titered to induce equivalent levels of infection based on cell killing or virus production, prior to their use in these assays. A range of test compound concentrations was added to the wells in triplicate (e.g., serial half-log dilutions) to evaluate inhibition of HIV infection. Controls for each assay included drug controls (drug colorimetric control wells), drug cytotoxicity control wells (cells with drug), virus control wells (cells with virus), and cell viability controls (cells only). Positive control drugs (e.g., AZT and ddC) were also run in parallel.
(§2) After six days of incubation at 37°C, cell viability was determined spectrophotometrically at 450 nm for each well, using the metabolic reduction of XTT to a soluble colored formazan. (See, Gartner and Popovic, "Virus Isolation and Production, in Aldovini and Walker (eds.), Techniques in HIV Research, Stockton Press, NY, pp. […] [1991]; and Nara and Fischinger, "Quantitative Infectivity Assay for HIV-1 and HIV-2," Nature 332:469-470 [1988]).
(§3) The in vitro therapeutic index (TI50) was defined as the fold-difference between the EC50 and IC50. The results for the various compounds are included in Figures 8 and 19.

Series [2] has as its system NL4-3 (WT). As to the kind of experiment: Cytopathic cell killing assay, cross-resistance profile, infected MT-4 cells. The series is classed as cell-based, HIV-1.
Description: (§4) The various HIV isolates tested in the Figures are those corresponding to wild-type virus (NL4-3) and the other strains listed by their RT mutations. The three 4xAZT isolates included in the Figures represent AZT drug-resistant variants. For example, the 4xAZT/L100I isolate has five mutations: four mutations confer increased resistance to AZT, and the other mutation is located within the NNRTI binding pocket. TZB and nevir. (nevirapine) are two well-known NNRTIs, included in this experiment for comparison purposes. […]
as §1, §2, §3

Series [3] has as its system HIV-1 variant K103N. The description is as above. The series is classed as cell-based. The settings on record: isolate K103N.
Description: as §4, §1, §2, §3

For series [4], the system named is HIV-1 variant L100I. The description is as above. The series is classed as cell-based. The settings on record: isolate L1001.
Description: as §4, §1, §2, §3

Series [5] has as its system HIV-1 variant V108I. The description is as above. Format: cell-based. The note with it: Human immunodeficiency virus 1, MT4, Table 9; isolate V1081.
Description: as §4, §1, §2, §3

The test system of series [6] is HIV-1 variant Y181C. Described as above. The series is classed as cell-based. The note with it: isolate Y181C.
Description: as §4, §1, §2, §3

Series [7] deals with HIV-1 variant K101E. The series is described as above. Format: cell-based. The note with it: Human immunodeficiency virus 1, MT4, Table 9; isolate KIOIE.
Description: as §4, §1, §2, §3

In series [8] the target is T1, HIV-1 WT RT (Human immunodeficiency virus type 1 group M subtype B, UniProt P03366).
T1 construct: purified RT protein (0.015 mg/mL) was incubated in a 100 µL reaction mixture
As to the kind of experiment: biochemical. The note with it: for inhibition at 10 µM: 10 µM drug concentration; for IC50: read-out: IC50.

Where [9] appears, read: Table 11, CEMSS/NL4-3, NRVC = reduction in viral CPE not seen (footnote).
Where [10] appears, read: Human immunodeficiency virus 1, MT4, Table 9.
The mark [11] stands for this setting: Table 2, WT RT, read-out: %inhibn (10µM).
The mark [12] stands for this setting: Table 3, WT RT, read-out: %inhibn (10 µM).
Where [13] appears, read: Table 1, WT RT, read-out: %inhibn (10µM).
Where [14] appears, read: Table 10 (values in µM), read-out: EC50.

This is an account of results in patent publication EP1210336B1, “SUBSTITUTED BENZIMIDAZOLES AS NON-NUCLEOSIDE INHIBITORS OF REVERSE TRANSCRIPTASE” (THE UNITED STATES OF AMERICA, as represented by the …, priority 1999, dated 2001).

Like-named read-outs stand apart in the source and are kept apart here.

With “1-(2,6-Difluorobenzyl)-2-(2,6-difluorophenyl)-4-hydroxyl-benzimidazole [compound 52]”, the EC50 in series [1] (setting [9]) worked out at 630 nM.
As for “1-(2,6-Difluorobenzyl)-2-(2,6-difluorophenyl)-4-hydroxymethylbenzimidazole [compound 67]”, the EC50 in series [1] (setting [9]) is 23 nM.
“1-(2,6-Difluorobenzyl)-2-(2,6-difluorophenyl)-4-isopropenylbenzimidazole [compound 66]”: in series [1] (setting [9]), the EC50 was 1440 nM.
Still for that read-out and setting: as for “1-(2,6-Difluorobenzyl)-2-(2,6-difluorophenyl)-benzimidazole-4-carbaldehyde [compound 68]”, the figure is 120 nM.
As for “1-(2,6-Difluorobenzyl)-2-(2,6-difluorophenyl)benzimidazole-4-carboxylate [compound 64]”, in series [1] (setting [9]), the “EC50 (µM)” value was “NRVC”.
As to “1-(2,6-difluorobenzyl)-2-(2,6-difluorophenyl)-4-acetoxymethylbenzimidazole [compound 51]”, the EC50 in series [1] (setting [9]) worked out at 59 nM.
On the same count and under the same terms, as for “1-(2,6-difluorobenzyl)-2-(2,6-difluorophenyl)-4-chloromethylbenzimidazole [compound 69]”, the figure is 180 nM.
Same read-out and setting: the result for “1-(2,6-difluorobenzyl)-2-(2,6-difluorophenyl)-4-cyanobenzimidazole [compound 60]” reads 430 nM.
Consider “1-(2,6-difluorobenzyl)-2-(2,6-difluorophenyl)benzimidazol-4-yl-methylamine [compound 71]”, for which the EC50 in series [1] (setting [9]) was 37 nM.
With “1-(2,6-difluorobenzyl)-2-(2,6-difluorophenyl)benzimidazole-4-carboxylic acid amide [compound 62]”, in series [1] (setting [9]), the EC50 is 4900 nM.
On to `CC(C)=CCn1c(-c2c(F)cccc2F)nc2c(C)cccc21` [(X= CH3) R = prenyl, 1-(3,3-dimethylallyl)-2-(2,6-difluorophenyl)-4-methylbenzimidazole], for which the EC50 in series [2] (Human immunodeficiency virus 1, NL43, MT4, Table 9, isolate NL4.3) is 1.3 µM; in series [3] (setting [10]), > 20 µM; in series [4] (setting [10]) it was 0.3 µM; in series [5], > 20 µM; in series [6] (setting [10]), > 20 µM; in series [7], > 20 µM.
As to `Fc1cccc(F)c1-c1nc2ccccc2n1Cc1ccccc1` [compound 28, 1-benzyl-2-(2,6-difluorophenyl)benzimidazole], the inhibition at 10 µM in series [8] (setting [11]) amounted to 71%.
Turning to `Cc1cccc2c1nc(-c1c(F)cccc1F)n2Cc1ccccc1` [compound 29, 1-benzyl-2-(2,6-difluorophenyl)-4-methylbenzimidazole], the inhibition at 10 µM in series [8] (setting [11]) worked out at 87%.
Same read-out and setting: as for `Cc1cccc2c1nc(-c1c(F)cccc1F)n2Cc1c(Cl)cccc1Cl` [compound 30, 1-(2,6-dichlorobenzyl)-2-(2,6-difluorophenyl)-4-methylbenzimidazole], the figure is 58%.
Take `Fc1cccc(F)c1COCc1nc2ccccc2n1Cc1c(F)cccc1F` [compound 32, 1-(2,6-difluorobenzyl)-2-(2,6-difluorobenzyloxymethyl)benzimidazole]: in series [8] (setting [12]), the inhibition at 10 µM stood at 7%.
With `Cc1cccc2c1nc(C(C)C)n2Cc1c(F)cccc1F` [compound 34, 1-(2,6-difluorobenzyl)-2-isopropyl-4-methylbenzimidazole], the inhibition at 10 µM in series [8] (setting [12]) stood at 53%. Also, the “cytotoxicity and anti-viral effect (summary graph)” value in series [1] was “effective therapeutic dose”.
In the case of `Cc1nc2ccccc2n1Cc1c(F)cccc1F` [compound 35, 1-(2,6-difluorobenzyl)-2-methylbenzimidazole], in series [8] (setting [12]), the inhibition at 10 µM was found to be 22%.
In the case of `Cc1ccccc1-c1nc2ccccc2n1Cc1c(F)cccc1F` [compound 36, 1-(2,6-difluorobenzyl)-2-(2-methylphenyl)benzimidazole], the inhibition at 10 µM in series [8] (setting [13]) came to 71%.
For the compound `Cc1cccc2c1nc(-c1cccc3ccccc13)n2Cc1c(F)cccc1F` [compound 37, 1-(2,6-difluorobenzyl)-2-(1-naphthyl)-4-methylbenzimidazole], in series [8] (setting [13]), the inhibition at 10 µM was determined as 2%.
For `Fc1cccc(F)c1Cn1c(-c2c(F)cccc2F)nc2cc(Br)ccc21` [compound 38, 1-(2,6-Difluorobenzyl)-2-(2,6-difluorophenyl)-5-bromobenzimidazole], the “cytotoxicity and anti-viral effect (summary graph)” value in series [1] was “inactive”.
Regarding `O=S(=O)(c1ccccc1)n1c(-c2c(F)cccc2F)nc2ccccc21` [compound 45], in series [8] (setting [11]), the inhibition at 10 µM turned out to be 52%.
On to `Cc1cccc2c1nc(-c1c(F)cccc1F)n2S(=O)(=O)c1ccccc1` [compound 46], for which the inhibition at 10 µM in series [8] (setting [11]) came to 39%.
Turning to `CN(C)c1cccc2c1nc(-c1c(F)cccc1F)n2Cc1c(F)cccc1F` [compound 59, 1-(2,6-difluorobenzyl)-2-(2,6-difluorophenyl)-4-N,N dimethylaminobenzimidazole], the EC50 in series [2] (Table 10 (values in µM), isolate NL4-3 (WT), read-out: EC50) was 2.88 µM; in series [3] (setting [14]), > 100 µM; in series [4] (setting [14]), 31.8 µM; in series [6] (setting [14]), > 100 µM; in series [1] (Table 7, concentration reducing cell killing or virus production by 50%, HIV-1 WT), 2370 nM; in series [1] (setting [9]) it was 2370 nM. Further, the IC50 was determined as 40 µM in series [8] (Table 7, HIV-1 WT RT) and 40 µM in series [8] (Table 11, WT RT). Moreover, in series [8] (Table 7, WT HIV-1 RT, 1 µM drug), the “%inhibn (1µM)” value was 77%.
On to `N=C(NO)c1cccc2c1nc(-c1c(F)cccc1F)n2Cc1c(F)cccc1F` [compound 61, N-hydroxy 1-(2,6-difluorobenzyl)-2-(2,6-difluorophenyl)benzimidazole-4-carboxamidine], for which the EC50 in series [1] (Human immunodeficiency virus 1, NL43, CEM-SS, Table 11, CEMSS/NL4-3, NRVC = reduction in viral CPE not seen (footnote)) was determined as 190 nM.
As for `CN(C)C(=O)c1cccc2c1nc(-c1c(F)cccc1F)n2Cc1c(F)cccc1F` [compound 63, 1-(2,6-difluorobenzyl)-2-(2,6-difluorophenyl)benzimidazole-4-carboxylic acid dimethylamide], in series [1] (setting [9]), the “EC50 (µM)” value is on record as “NRVC”.
Turning to `CC(C)(O)c1cccc2c1nc(-c1c(F)cccc1F)n2Cc1c(F)cccc1F` [compound 65, 1-(2,6-Difluorobenzyl)-2-(2,6-difluorophenyl)-4-benzimidazoyl-2-propanol], the EC50 in series [1] (setting [9]) is 634000 nM.
As for `CC(=O)NCc1cccc2c1nc(-c1c(F)cccc1F)n2Cc1c(F)cccc1F` [compound 72], the “EC50 (µM)” value in series [1] (setting [9]) is listed as “NRVC”.
Take `CC(=O)N(C)Cc1cccc2c1nc(-c1c(F)cccc1F)n2Cc1c(F)cccc1F` [compound 73, 1-(2,6-Difluorobenzyl)-2-(2,6-difluorophenyl)-4-(N-acetyl-N-methyl)-aminomethylbenzimidazole]: the concentration for a half-maximal effect (EC50) in series [1] (setting [9]) came out at 580 nM.
As for `Cc1cccc2c1nc(-c1ccc(C#N)cc1)n2Cc1c(F)cccc1F` [compound 4007], the inhibition at 10 µM in series [8] (setting [13]) is 26%.
